# Test results as given in ChEMBL document CHEMBL1201862, “PubChem BioAssay data set” (2004).
#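 Step 1: Grow cells in 96-well plates. Step 2: Expose to compound for 48 hours at 5 concentrations. Step 3: Interpolate endpoints linearly; if unreached, use highest concentration. GI50 is the concentration that inhibits growth by half.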 Calls of active or inactive are those of the source. No stated cut-off is given here; in the data, active = GI50 up to about 1.1 µM and inactive = higher.
# Tests used:
# Experiment in all cases: NCI tumour cell line growth inhibition, 48 h
# COLO 205 = tested on: COLO 205
# 786-0 = tested on: 786-0
# HT-29 = tested on: HT-29
# NCI-H522 = tested on: NCI-H522
# MDA-MB-435 = tested on: MDA-MB-435
# PC-3 = tested on: PC-3
# SK-OV-3 = tested on: SK-OV-3
# UACC-62 = tested on: UACC-62
# RPMI-8226 = tested on: RPMI-8226
# SF-295 = tested on: SF-295
# HL-60 = tested on: HL-60
# SK-MEL-28 = tested on: SK-MEL-28
# MOLT-4 = tested on: MOLT-4
# NCI-H460 = tested on: NCI-H460
# SK-MEL-5 = tested on: SK-MEL-5
# T47D = tested on: T47D
# CCRF-CEM = tested on: CCRF-CEM
# MDA-N = tested on: MDA-N
Structure (SMILES),GI50 (COLO 205),GI50 (786-0),GI50 (HT-29),GI50 (NCI-H522),GI50 (MDA-MB-435),GI50 (PC-3),GI50 (SK-OV-3),GI50 (UACC-62),GI50 (RPMI-8226),GI50 (SF-295),GI50 (HL-60),GI50 (SK-MEL-28),GI50 (MOLT-4),GI50 (NCI-H460),GI50 (SK-MEL-5),GI50 (T47D),GI50 (CCRF-CEM),GI50 (MDA-N)
Clc1ccc(OCc2nnc3sc(-c4ccc(-c5ccc(Cl)cc5Cl)o4)nn23)c(Cl)c1,26.1 µM (inactive),13.3 µM (inactive),22.7 µM (inactive),17.8 µM (inactive),32.8 µM (inactive),18.1 µM (inactive),19.1 µM (inactive),25.7 µM (inactive),24.2 µM (inactive),16.9 µM (inactive),28.2 µM (inactive),23.8 µM (inactive),18.6 µM (inactive),20.4 µM (inactive),20.1 µM (inactive),19.5 µM (inactive),25.3 µM (inactive),24.2 µM (inactive)
COc1cccc(-c2nc(-c3cnccn3)n(Cc3ccccc3)n2)c1,> 100 µM (inactive),69.5 µM (inactive),> 100 µM (inactive),52.1 µM (inactive),> 100 µM (inactive),> 100 µM (inactive),75.9 µM (inactive),91.4 µM (inactive),> 100 µM (inactive),54.3 µM (inactive),> 100 µM (inactive),86.1 µM (inactive),> 100 µM (inactive),> 100 µM (inactive),89.3 µM (inactive),> 100 µM (inactive),> 100 µM (inactive),> 100 µM (inactive)
CCC1(O)CC(O)c2c(O)c3c(c(O)c2C1C(=O)OC)C(=O)c1cccc(O)c1C3=O (stereo not drawn),2.21 µM (inactive),2.75 µM (inactive),3.27 µM (inactive),1.75 µM (inactive),5.45 µM (inactive),2.86 µM (inactive),4.49 µM (inactive),3 µM (inactive),2.21 µM (inactive),2.66 µM (inactive),0.794 µM (active),11.4 µM (inactive),0.415 µM (active),1.7 µM (inactive),1.84 µM (inactive),3.77 µM (inactive),1.53 µM (inactive),5.36 µM (inactive)
C=CC1=C(C)c2cc3[nH]c(c4c5nc(cc6[nH]c(cc1n2)c(C)c6CC)C=C5C(=O)C4C(=O)OC)C(CCC(=O)OC/C=C(\C)CCCC(C)CCCC(C)CCCC(C)C)C3C.C=CC1=C(C)c2cc3[nH]c(c4c5nc(cc6[nH]c(cc1n2)c(C=O)c6CC)C=C5C(=O)C4C(=O)OC)C(CCC(=O)OC/C=C(\C)CCCC(C)CCCC(C)CCCC(C)C)C3C (stereo not drawn),43.9 µM (inactive),> 100 µM (inactive),> 100 µM (inactive),22.6 µM (inactive),> 100 µM (inactive),> 100 µM (inactive),> 100 µM (inactive),> 100 µM (inactive),> 100 µM (inactive),> 100 µM (inactive),10 µM (inactive),> 100 µM (inactive),> 100 µM (inactive),> 100 µM (inactive),> 100 µM (inactive),> 100 µM (inactive),10 µM (inactive),> 100 µM (inactive)
COc1ccc2c(c1)Cc1c(NCCN(C)C)ccc(C(=O)NCCCN(C)CCCNC(=O)c3ccc(NCCN(C)C)c4c3Nc3ccc(OC)cc3C4)c1N2,< 0.01 µM (active),< 0.01 µM (active),< 0.01 µM (active),< 0.01 µM (active),< 0.01 µM (active),< 0.01 µM (active),< 0.01 µM (active),< 0.0228 µM (active),< 0.01 µM (active),0.0213 µM (active),0.0358 µM (active),0.142 µM (active),< 0.01 µM (active),< 0.01 µM (active),0.0299 µM (active),0.15 µM (active),< 0.0393 µM (active),< 0.01 µM (active)
COc1ccc(C2=C(N)c3c(Cl)cccc3C2=O)cc1,> 100 µM (inactive),> 100 µM (inactive),> 100 µM (inactive),> 100 µM (inactive),> 100 µM (inactive),> 100 µM (inactive),55.3 µM (inactive),> 100 µM (inactive),> 100 µM (inactive),> 100 µM (inactive),> 100 µM (inactive),> 100 µM (inactive),95.1 µM (inactive),> 100 µM (inactive),> 100 µM (inactive),78 µM (inactive),> 100 µM (inactive),> 100 µM (inactive)
CC1(C)C=CC(=O)C(O)C(C)(C)C1=O (stereo not drawn),> 100 µM (inactive),96.2 µM (inactive),88.3 µM (inactive),19.9 µM (inactive),53.3 µM (inactive),> 100 µM (inactive),> 100 µM (inactive),52.8 µM (inactive),21.3 µM (inactive),75.3 µM (inactive),27.4 µM (inactive),> 100 µM (inactive),7.05 µM (inactive),29.7 µM (inactive),> 100 µM (inactive),> 100 µM (inactive),0.13 µM (active),52.8 µM (inactive)
CC(=O)[C@H]1CC[C@@H]2[C@]1(C)CC=C1[C@]23C=C[C@]2(C[C@@H](O)CC[C@]12C)C(C(=O)O)C3C(=O)O (stereo partly drawn),> 100 µM (inactive),> 100 µM (inactive),> 100 µM (inactive),> 100 µM (inactive),> 100 µM (inactive),> 100 µM (inactive),> 100 µM (inactive),> 100 µM (inactive),> 100 µM (inactive),> 100 µM (inactive),> 100 µM (inactive),> 100 µM (inactive),> 100 µM (inactive),> 100 µM (inactive),> 100 µM (inactive),> 100 µM (inactive),> 100 µM (inactive),> 100 µM (inactive)
CN(C)c1nc(-c2ccccc2)c(C(=O)c2c[nH]c3ccccc23)s1,4.78 µM (inactive),8.61 µM (inactive),3.51 µM (inactive),2.76 µM (inactive),2.09 µM (inactive),> 31.3 µM (inactive),7.6 µM (inactive),6.05 µM (inactive),3.16 µM (inactive),3.92 µM (inactive),3.4 µM (inactive),> 35.2 µM (inactive),6.62 µM (inactive),3.55 µM (inactive),8.57 µM (inactive),> 43.7 µM (inactive),5.92 µM (inactive),1.93 µM (inactive)
CNC(=S)N/N=C(\C)c1nc2cccnc2[nH]1,33.5 µM (inactive),43.7 µM (inactive),36.8 µM (inactive),22.8 µM (inactive),77.1 µM (inactive),48.5 µM (inactive),31.8 µM (inactive),6.34 µM (inactive),71.9 µM (inactive),30.3 µM (inactive),17.6 µM (inactive),82.6 µM (inactive),31.9 µM (inactive),29.9 µM (inactive),29.2 µM (inactive),43.5 µM (inactive),24.4 µM (inactive),> 100 µM (inactive)
CCOC(=O)/C(SC#N)=C(/N)N1CCCC1,> 100 µM (inactive),> 100 µM (inactive),> 100 µM (inactive),> 100 µM (inactive),> 100 µM (inactive),> 100 µM (inactive),> 100 µM (inactive),> 100 µM (inactive),> 100 µM (inactive),> 100 µM (inactive),> 100 µM (inactive),> 100 µM (inactive),> 100 µM (inactive),> 100 µM (inactive),> 100 µM (inactive),> 100 µM (inactive),> 100 µM (inactive),> 100 µM (inactive)
Nc1nc(Cl)cc(NCC2(CCO)CCC2)n1,–,> 100 µM (inactive),> 100 µM (inactive),> 100 µM (inactive),> 100 µM (inactive),> 100 µM (inactive),> 100 µM (inactive),> 10 µM (inactive),> 100 µM (inactive),> 10 µM (inactive),> 100 µM (inactive),> 100 µM (inactive),> 100 µM (inactive),> 100 µM (inactive),> 100 µM (inactive),22.2 µM (inactive),> 100 µM (inactive),> 100 µM (inactive)
O=C(C1C(c2ccccc2)N1C(c1ccccc1)c1ccccc1)C1C(c2ccccc2)N1C(c1ccccc1)c1ccccc1 (stereo not drawn),> 10 µM (inactive),21.3 µM (inactive),13.6 µM (inactive),5.71 µM (inactive),36.4 µM (inactive),23.9 µM (inactive),> 100 µM (inactive),–,3.59 µM (inactive),75.7 µM (inactive),2.88 µM (inactive),15.7 µM (inactive),6.9 µM (inactive),15.5 µM (inactive),20.6 µM (inactive),28.4 µM (inactive),3.61 µM (inactive),28.9 µM (inactive)
CC(C)CC1[C@@H](OCc2ccccc2)COS(=O)(=O)N1Cc1ccccc1 (stereo partly drawn),> 100 µM (inactive),> 100 µM (inactive),38.9 µM (inactive),24.4 µM (inactive),44.5 µM (inactive),65.5 µM (inactive),> 100 µM (inactive),> 100 µM (inactive),31.9 µM (inactive),27.6 µM (inactive),46.2 µM (inactive),> 100 µM (inactive),73.6 µM (inactive),> 100 µM (inactive),83.2 µM (inactive),> 100 µM (inactive),> 100 µM (inactive),> 10 µM (inactive)
O=S(=O)(O)c1ccc2cc(/N=N\c3cc(S(=O)(=O)O)c4cccnc4c3O)ccc2c1,> 100 µM (inactive),> 100 µM (inactive),> 100 µM (inactive),> 100 µM (inactive),> 100 µM (inactive),> 100 µM (inactive),> 100 µM (inactive),> 100 µM (inactive),> 100 µM (inactive),> 100 µM (inactive),1.61 µM (inactive),> 100 µM (inactive),> 100 µM (inactive),> 100 µM (inactive),> 100 µM (inactive),> 100 µM (inactive),29.7 µM (inactive),> 100 µM (inactive)
